Columns and labels:
[1] = test system: genotype 1b (Con1) stable HCV replicon in Huh-7-derived cells; assay: Stable subgenomic HCV replicon EC50, genotype 1b (Renilla luciferase); type: cell-based, hepatitis C virus; settings: Hepatitis C virus, stable replicon genotype 1b, 72 h, read-out: EC50 1B RLUC
Outline: (§1)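 Compounds, three-fold diluted, were applied to Huh-7-derived cells harbouring luciferase replicons (genotype 1a H77, 1b Con1, 2a JFH-1, 4a ED43, with strain-specific adaptive mutations). Seventy-two hours later, intracellular replication was gauged by Renilla luciferase activity and EC50 derived by regression.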

[2] = test system: genotype 2a (JFH-1) stable HCV replicon in Huh-7-derived cells; assay: Stable subgenomic HCV replicon EC50, genotype 2a (Renilla luciferase); type: cell-based, hepatitis C virus; settings: Hepatitis C virus, stable replicon genotype 2a, 72 h, read-out: EC50 2A RLUC
Outline: as §1

[3] = test system: genotype 1a (H77) wild type transient HCV replicon in Huh-7-derived cells; assay: Transient-transfected HCV replicon EC50, genotype 1a wild type; type: cell-based, hepatitis C virus; settings: Hepatitis C virus, 72 h, transient-transfected replicon genotype 1a wild type, read-out: EC50 1A WT
[4] = test system: genotype 4a (ED43) stable HCV replicon in Huh-7-derived cells; assay: Stable subgenomic HCV replicon EC50, genotype 4a (Renilla luciferase); type: cell-based, hepatitis C virus; settings: Hepatitis C virus, 72 h, read-out: EC50 4A RLUC
Outline: as §1

[5] = test system: genotype 1b (Con1) wild type transient HCV replicon in Huh-7-derived cells; assay: Transient-transfected HCV replicon EC50, genotype 1b wild type; type: cell-based, hepatitis C virus; settings: Hepatitis C virus, 72 h, transient-transfected replicon genotype 1b wild type, read-out: EC50 1B WT
[6] = test system: genotype 3a (S52) stable HCV replicon in Huh-7-derived cells; assay: Stable subgenomic HCV replicon EC50, genotype 3a (Renilla luciferase); type: cell-based, hepatitis C virus; settings: Hepatitis C virus, 72 h, read-out: EC50 3A RLUC
[7] = test system: genotype 1a NS3/4a protease inhibitor resistant variant R155K transient HCV replicon in Huh-7-derived cells; assay: Transient-transfected HCV replicon EC50, genotype 1a R155K; type: cell-based, hepatitis C virus; settings: Hepatitis C virus, 72 h, read-out: EC50 1A R155K, transient-transfected replicon genotype 1a R155K resistant variant, 72 h
[8] = molecular target: HCV NS3 protease domain genotype 3a (Hepatitis C virus genotype 3a, UniProt Q81258); assay: Ki determination, NS3 protease genotype 3a (fluorogenic depsipeptide substrate); type: biochemical; settings: 200 pM enzyme, NS4A peptide
HCV NS3 protease domain genotype 3a, sequence (Q81258 whole entry, looked up, the tested form may be a part): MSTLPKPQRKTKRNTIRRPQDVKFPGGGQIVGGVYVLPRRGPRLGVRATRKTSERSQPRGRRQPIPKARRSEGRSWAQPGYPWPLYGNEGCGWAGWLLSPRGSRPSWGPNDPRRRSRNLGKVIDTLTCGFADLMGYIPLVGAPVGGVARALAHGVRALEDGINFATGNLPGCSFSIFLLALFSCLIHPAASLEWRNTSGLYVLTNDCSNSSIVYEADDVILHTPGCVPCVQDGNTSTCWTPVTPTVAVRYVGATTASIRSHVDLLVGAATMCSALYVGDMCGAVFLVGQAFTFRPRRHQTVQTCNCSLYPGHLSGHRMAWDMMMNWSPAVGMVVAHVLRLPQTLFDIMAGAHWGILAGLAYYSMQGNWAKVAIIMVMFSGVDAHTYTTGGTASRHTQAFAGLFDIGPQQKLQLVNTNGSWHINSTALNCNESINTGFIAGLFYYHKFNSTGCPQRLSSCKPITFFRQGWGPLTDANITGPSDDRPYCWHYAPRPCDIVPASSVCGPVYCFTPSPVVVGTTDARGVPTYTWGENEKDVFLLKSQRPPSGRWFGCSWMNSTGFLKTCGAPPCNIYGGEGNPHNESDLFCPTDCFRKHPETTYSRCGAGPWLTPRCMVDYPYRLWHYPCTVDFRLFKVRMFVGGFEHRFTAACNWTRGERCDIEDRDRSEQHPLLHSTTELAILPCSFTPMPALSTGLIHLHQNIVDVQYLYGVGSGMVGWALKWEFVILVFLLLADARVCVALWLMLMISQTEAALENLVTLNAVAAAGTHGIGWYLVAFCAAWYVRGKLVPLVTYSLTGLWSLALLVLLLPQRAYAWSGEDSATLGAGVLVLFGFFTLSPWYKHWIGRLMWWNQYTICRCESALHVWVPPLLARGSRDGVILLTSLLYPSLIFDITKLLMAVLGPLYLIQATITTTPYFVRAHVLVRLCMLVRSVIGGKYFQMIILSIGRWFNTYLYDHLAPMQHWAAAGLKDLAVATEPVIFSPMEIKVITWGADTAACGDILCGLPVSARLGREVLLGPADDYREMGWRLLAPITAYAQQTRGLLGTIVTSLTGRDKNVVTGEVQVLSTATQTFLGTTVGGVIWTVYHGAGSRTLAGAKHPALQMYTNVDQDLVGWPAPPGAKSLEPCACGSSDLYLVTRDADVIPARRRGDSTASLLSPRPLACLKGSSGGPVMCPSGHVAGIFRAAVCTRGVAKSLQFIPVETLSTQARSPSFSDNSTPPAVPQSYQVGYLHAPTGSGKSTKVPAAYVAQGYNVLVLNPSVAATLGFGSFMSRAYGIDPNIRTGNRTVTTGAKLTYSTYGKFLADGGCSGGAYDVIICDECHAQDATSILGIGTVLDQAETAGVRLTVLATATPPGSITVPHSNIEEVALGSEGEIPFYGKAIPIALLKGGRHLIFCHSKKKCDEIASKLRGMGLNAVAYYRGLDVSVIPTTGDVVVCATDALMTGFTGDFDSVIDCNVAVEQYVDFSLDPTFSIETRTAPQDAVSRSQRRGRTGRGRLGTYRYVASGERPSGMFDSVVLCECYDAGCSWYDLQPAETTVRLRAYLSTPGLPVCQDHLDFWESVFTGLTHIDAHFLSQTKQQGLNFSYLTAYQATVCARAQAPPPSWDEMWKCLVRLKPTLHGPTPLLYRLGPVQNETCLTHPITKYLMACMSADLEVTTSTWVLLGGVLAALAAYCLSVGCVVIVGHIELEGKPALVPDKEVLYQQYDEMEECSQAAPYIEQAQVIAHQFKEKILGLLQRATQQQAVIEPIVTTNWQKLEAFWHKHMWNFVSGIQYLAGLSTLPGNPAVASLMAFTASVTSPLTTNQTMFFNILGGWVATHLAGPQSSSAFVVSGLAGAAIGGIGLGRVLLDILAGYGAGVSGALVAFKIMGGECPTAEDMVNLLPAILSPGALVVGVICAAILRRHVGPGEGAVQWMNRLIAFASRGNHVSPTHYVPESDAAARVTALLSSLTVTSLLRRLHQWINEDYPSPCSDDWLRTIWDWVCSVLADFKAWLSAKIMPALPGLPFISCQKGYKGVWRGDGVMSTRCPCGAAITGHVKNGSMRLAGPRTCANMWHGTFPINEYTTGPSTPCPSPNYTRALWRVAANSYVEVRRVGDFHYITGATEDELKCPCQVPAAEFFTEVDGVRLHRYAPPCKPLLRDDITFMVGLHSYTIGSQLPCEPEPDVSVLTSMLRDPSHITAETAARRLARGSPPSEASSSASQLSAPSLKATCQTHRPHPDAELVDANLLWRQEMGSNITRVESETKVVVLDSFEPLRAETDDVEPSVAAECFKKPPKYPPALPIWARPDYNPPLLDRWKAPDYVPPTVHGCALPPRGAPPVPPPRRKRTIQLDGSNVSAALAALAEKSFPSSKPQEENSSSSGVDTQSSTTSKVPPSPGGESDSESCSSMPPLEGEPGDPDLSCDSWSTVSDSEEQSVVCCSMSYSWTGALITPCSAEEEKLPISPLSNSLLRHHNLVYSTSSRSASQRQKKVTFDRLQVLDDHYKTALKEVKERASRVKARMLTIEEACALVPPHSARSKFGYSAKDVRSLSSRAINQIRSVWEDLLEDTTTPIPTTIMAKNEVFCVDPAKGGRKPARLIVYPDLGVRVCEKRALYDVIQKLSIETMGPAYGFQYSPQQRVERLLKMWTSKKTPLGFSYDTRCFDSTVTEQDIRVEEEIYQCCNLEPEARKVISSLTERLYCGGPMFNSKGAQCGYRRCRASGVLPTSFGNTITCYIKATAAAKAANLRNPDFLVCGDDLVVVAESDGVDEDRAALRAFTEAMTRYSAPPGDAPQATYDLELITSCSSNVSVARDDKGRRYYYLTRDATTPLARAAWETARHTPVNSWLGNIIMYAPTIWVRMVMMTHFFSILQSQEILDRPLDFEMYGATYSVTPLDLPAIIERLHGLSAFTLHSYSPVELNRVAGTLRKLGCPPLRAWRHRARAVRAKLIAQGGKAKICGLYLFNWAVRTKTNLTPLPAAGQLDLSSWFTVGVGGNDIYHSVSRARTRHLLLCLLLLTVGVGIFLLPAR
Outline: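 The NS3 protease domain (aa 1-181) with 20 μM NS4A peptide was used at 50 pM with 4 μM substrate (1b) or at 200 pM with 2 μM substrate (3a). Inhibitors (100 nM-5 pM) were pre-incubated 1 h at room temperature in HEPES/glycerol/DTT buffer with 10% DMSO. Steady-state rates (90-120 min) gave Ki via the Morrison equation, corrected for active enzyme and [S]/Km.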

[9] = test system: genotype 1a (H77) stable HCV replicon in Huh-7-derived cells; assay: Stable subgenomic HCV replicon EC50, genotype 1a (Renilla luciferase); type: cell-based, hepatitis C virus; settings: Hepatitis C virus, stable replicon genotype 1a, 72 h, read-out: EC50 1A RLUC
Outline: as §1

[10] = molecular target: HCV NS3 protease domain genotype 1b (Hepatitis C virus genotype 1b (isolate Con1), UniProt Q9WMX2, E1202G); assay: Ki determination, NS3 protease genotype 1b (fluorogenic depsipeptide substrate); type: biochemical; settings: 50 pM enzyme, NS4A peptide
HCV NS3 protease domain genotype 1b, sequence (Q9WMX2 1027-1208 E1202G): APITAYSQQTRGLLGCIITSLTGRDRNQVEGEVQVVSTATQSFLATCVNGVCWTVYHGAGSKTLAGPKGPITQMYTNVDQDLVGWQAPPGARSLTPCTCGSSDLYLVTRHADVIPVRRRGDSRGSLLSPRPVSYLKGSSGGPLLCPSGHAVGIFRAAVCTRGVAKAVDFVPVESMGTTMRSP
Procedure: Purified NS3 protease domain (amino acids 1-181) of the genotype 1b and 3a virus were generated as above.
Reactions were run at room temperature in buffer consisting of 50 mM HEPES, 40% glycerol, 0.05% Triton X-100, 10 mM DTT, and 10% DMSO. The final assay solutions contained 50 pM NS3 genotype 1 b protease or 200 pM genotype 3a protease, 20 μM NS4A peptide, and 4 μM substrate (genotype 1b) or 2 μM substrate (genotype 3a). Inhibitor concentrations varied from 100 nM to 5 pM in 3-fold dilutions, and no-inhibitor controls were included.
Compound dilutions were made in DMSO at 20× final concentration. Reaction mixtures were prepared in 96-well assay plates. A solution of enzyme and NS4A peptide in assay buffer (25 μL volume with both reagents at 4× final concentration) was mixed with 45 μL assay buffer and 5 μL of either inhibitor or DMSO, and pre-incubated at room temperature for 1 hour. The reaction was started by addition of 25 μL substrate solution at 4× final concentration. Plates were mixed vigorously for 5-10 seconds and reactions were allowed to proceed for 90 minutes, fluorescence was measured every 30 s between 90 and 120 minutes reaction time using a Tecan InfiniTe M1000 or PerkinElmer Envision multimode plate reader with an excitation wavelength of 340 nm and an emission wavelength of 490 nm.
To determine the Ki, rates were plotted as a function of inhibitor concentration, and the data were fit with equation 1 (Morrison, J. F., Biochimica et Biophysica Acta 1969, 185, 269-286) to calculate Ki^app using GraphPad Prism 5. […] Ki was calculated from Ki^app/(1+[[S]/Km]).

[11] = test system: genotype 1b NS3/4a protease inhibitor resistant variant D168A transient HCV replicon in Huh-7-derived cells; assay: Transient-transfected HCV replicon EC50, genotype 1b D168A; type: cell-based, hepatitis C virus; settings: Hepatitis C virus, 72 h, read-out: EC50 1B D168A, transient-transfected replicon genotype 1b D168A resistant variant, 72 h

## CC[C@@H]1[C@@H]2CN(C(=O)[C@H](C(C)(C)C)NC(=O)O[C@@H]3CCC[C@H]3CCCCCc3nc4ccc(OC)cc4nc3O2)[C@@H]1C(=O)N[C@]1(C(=O)NS(=O)(=O)C2CC2)C[C@H]1C(F)F [Example 5, (3aR,7S,10S,11S,12R,24aR)-7-tert-butyl-N-[(1R,2R)-1-[(cyclopropylsulfonyl)carbamoyl]-2-(difluoromethyl)cyclopropyl]-11-ethyl-16-methoxy-5,8-dioxo-1,2,3,3a,5,6,7,8,11,12,20,21,22,23,24,24a-hexadecahydro-10H-9,12-methanocyclopenta[18,19][1,10,3,6]dioxadiazacyclononadecino[11,12-b]quinoxaline-10-carboxamide]
[1]
  EC50: 7.4 nM
[2]
  EC50: 11 nM
[3]
  EC50: 3.7 nM
[4]
  EC50: 6.9 nM
[5]
  EC50: 3.2 nM
[6]
  EC50: 405 nM
[7]
  EC50: 17 nM
[8]
  Ki: 0.17 nM
[9]
  EC50: 8.7 nM
[10]
  Ki: 0.04 nM
[11]
  EC50: 91 nM

## CC[C@@H]1[C@@H]2CN(C(=O)[C@H](C(C)(C)C)NC(=O)O[C@@H]3[C@H]4CC[C@H](C4)[C@H]3CCCCCc3nc4ccc(OC)cc4nc3O2)[C@@H]1C(=O)N[C@]1(C(=O)NS(=O)(=O)C2CC2)C[C@H]1C(F)F [Example 13, (1R,4S,4aR,8S,11S,12S,13R,25aR)-8-tert-butyl-N-[(1R,2R)-1-[(cyclopropylsulfonyl)carbamoyl]-2-(difluoromethyl)cyclopropyl]-12-ethyl-17-methoxy-6,9-dioxo-2,3,4,4a,6,7,8,9,12,13,21,22,23,24,25,25a-hexadecahydro-1H,11H-1,4:10,13-dimethanoquinoxalino[2,3-k][1,10,3,6]benzodioxadiazacyclononadecine-11-carboxamide]
[1]
  EC50: 9.5 nM
[2]
  EC50: 26 nM
[3]
  EC50: 8.6 nM
[4]
  EC50: 11 nM
[5]
  EC50: 3.1 nM
[6]
  EC50: 685 nM
[7]
  EC50: 59 nM
[8]
  Ki: 0.18 nM
[9]
  EC50: 13 nM
[10]
  Ki: 0.04 nM
[11]
  EC50: 209 nM

## CC[C@@H]1[C@@H]2CN(C(=O)[C@H](C3CCCC3)NC(=O)O[C@@H]3C[C@H]3CCCCCc3nc4ccc(OC)cc4nc3O2)[C@@H]1C(=O)N[C@]1(C(=O)NS(=O)(=O)C2(C)CC2)C[C@H]1C(F)F [Example 14, (1aR,5S,8S,9S,10R,22aR)-5-cyclopentyl-N-[(1R,2R)-2-(difluoromethyl)-1-{[(1-methylcyclopropyl)sulfonyl]carbamoyl}cyclopropyl]-9-ethyl-14-methoxy-3,6-dioxo-1,1a,3,4,5,6,9,10,18,19,20,21,22,22a-tetradecahydro-8H-7,10-methanocyclopropa[18,19][1,10,3,6]dioxadiazacyclononadecino[11,12-b]quinoxaline-8-carboxamide]
[1]
  EC50: 6.8 nM
[2]
  EC50: 7 nM
[3]
  EC50: 7.4 nM
[4]
  EC50: 7.3 nM
[5]
  EC50: 4 nM
[6]
  EC50: 308 nM
[7]
  EC50: 21 nM
[8]
  Ki: 0.24 nM
[9]
  EC50: 9.7 nM
[10]
  Ki: 0.07 nM
[11]
  EC50: 99 nM

## COc1ccc2nc3c(nc2c1)O[C@H]1CN(C(=O)[C@H](C(C)(C)C)NC(=O)O[C@@H]2[C@H]4CC[C@H](C4)[C@H]2CCCCC3)[C@H](C(=O)N[C@]2(C(=O)NS(=O)(=O)C3CC3)C[C@H]2C(F)F)[C@@H]1C [Example 26, (1R,4S,4aR,8S,11S,12S,13R,25aR)-8-tert-butyl-N-[(1R,2R)-1-[(cyclopropylsulfonyl)carbamoyl]-2-(difluoromethyl)cyclopropyl]-17-methoxy-12-methyl-6,9-dioxo-2,3,4,4a,6,7,8,9,12,13,21,22,23,24,25,25a-hexadecahydro-1H,11H-1,4:10,13-dimethanoquinoxalino[2,3-k][1,10,3,6]benzodioxadiazacyclononadecine-11-carboxamide]
[1]
  EC50: 4.3 nM
[2]
  EC50: 12 nM
[3]
  EC50: 3.6 nM
[4]
  EC50: 6 nM
[5]
  EC50: 1.9 nM
[6]
  EC50: 297 nM
[7]
  EC50: 12 nM
[8]
  Ki: 0.17 nM
[9]
  EC50: 6.3 nM
[10]
  Ki: 0.05 nM
[11]
  EC50: 109 nM

## CCC[C@@H]1[C@@H]2CN(C(=O)[C@H](C(C)(C)C)NC(=O)O[C@@H]3C[C@H]3CCCCCc3nc4ccc(OC)cc4nc3O2)[C@@H]1C(=O)N[C@]1(C(=O)NS(=O)(=O)C2(C)CC2)C[C@H]1C(F)F [Example 29, (1aR,5S,8S,9S,10R,22aR)-5-tert-butyl-N-[(1R,2R)-2-(difluoromethyl)-1-{[(1-methylcyclopropyl)sulfonyl]carbamoyl}cyclopropyl]-14-methoxy-3,6-dioxo-9-propyl-1,1a,3,4,5,6,9,10,18,19,20,21,22,22a-tetradecahydro-8H-7,10-methanocyclopropa[18,19][1,10,3,6]dioxadiazacyclononadecino[11,12-b]quinoxaline-8-carboxamide]
[1]
  EC50: 8.9 nM
[2]
  EC50: 11 nM
[3]
  EC50: 4.8 nM
[4]
  EC50: 7.2 nM
[5]
  EC50: 3.1 nM
[6]
  EC50: 137 nM
[7]
  EC50: 11 nM
[8]
  Ki: 0.12 nM
[9]
  EC50: 10 nM
[10]
  Ki: 0.06 nM
[11]
  EC50: 48 nM

## COc1ccc2nc3c(nc2c1)O[C@H]1CN(C(=O)[C@H](C(C)(C)C)NC(=O)O[C@@H]2C[C@H]2CCCCC3)[C@H](C(=O)N[C@]2(C(=O)NS(=O)(=O)C3(C)CC3)C[C@H]2C(F)F)[C@@H]1CC(C)C [Example 30, (1aR,5S,8S,9S,10R,22aR)-5-tert-butyl-N-[(1R,2R)-2-(difluoromethyl)-1-{[(1-methylcyclopropyl)sulfonyl]carbamoyl}cyclopropyl]-14-methoxy-9-(2-methylpropyl)-3,6-dioxo-1,1a,3,4,5,6,9,10,18,19,20,21,22,22a-tetradecahydro-8H-7,10-methanocyclopropa[18,19][1,10,3,6]dioxadiazacyclononadecino[11,12-b]quinoxaline-8-carboxamide]
[1]
  EC50: 35 nM
[2]
  EC50: 47 nM
[3]
  EC50: 41 nM
[4]
  EC50: 31 nM
[5]
  EC50: 31 nM
[6]
  EC50: 2440 nM
[7]
  EC50: 296 nM
[8]
  Ki: 0.63 nM
[9]
  EC50: 55 nM
[10]
  Ki: 0.14 nM
[11]
  EC50: 503 nM

— patent publication US10335409B2 (priority 2012, dated 2019)
